Experimental data as given in US20090270508A1, “GluR2 receptor modulators” (priority 2007, published 2009).

How the values were obtained:
locomotor activity = assay: Amphetamine-induced locomotor activity in activity chambers; type: in vivo; conditions: mice, 1 mg/kg and 3 mg/kg i.p.
Procedure: FIG. 17. Effect of N,N′-(2R,2′R)-2,2′-(biphenyl-4,4′-diyl)bis(propane-2,1-diyl)dipropane-2-sulfonamide) on locomotor activity in the context of various doses of amphetamine.
Mice (male, 8 weeks of age; 129S6/SvEv from Taconic) were housed in groups of five for one week. Animals were injected (i.p.) with either vehicle (diluent:saline at a ratio of 3:50 v/v), or one of two doses of GR341 (1 mg/kg and 3 mg/kg). After 15 minutes, animals were injected (i.p.) either with saline or Amphetamine at 3 mg/kg. Mice were held individually without food or water for an additional 15 minutes and then placed in Plexiglas activity chambers (model ENV-520; Med Associates, St. Albans, Vt.) (43.2 cm long×43.2 cm wide×30.5 cm high) to assess locomotor activity. Mice were placed into the center of the open field, and activity was recorded for 30 minutes with subtotals for 5-minute increments. Testing was performed in darkness to minimize anxiety.

GluR2 receptor = molecular target: T1, GluR2 receptor (Rattus norvegicus, UniProt P19491); assay: Electrophysiologic studies in GluR2 expressing oocytes (I/Imax versus concentration); type: cell-based; conditions: cells expressing the GluR2 receptor, FIG. 16A-D
T1 construct: expressed in transfected cells; host or cells: Xenopus laevis oocytes
T1 sequence (P19491 22-883): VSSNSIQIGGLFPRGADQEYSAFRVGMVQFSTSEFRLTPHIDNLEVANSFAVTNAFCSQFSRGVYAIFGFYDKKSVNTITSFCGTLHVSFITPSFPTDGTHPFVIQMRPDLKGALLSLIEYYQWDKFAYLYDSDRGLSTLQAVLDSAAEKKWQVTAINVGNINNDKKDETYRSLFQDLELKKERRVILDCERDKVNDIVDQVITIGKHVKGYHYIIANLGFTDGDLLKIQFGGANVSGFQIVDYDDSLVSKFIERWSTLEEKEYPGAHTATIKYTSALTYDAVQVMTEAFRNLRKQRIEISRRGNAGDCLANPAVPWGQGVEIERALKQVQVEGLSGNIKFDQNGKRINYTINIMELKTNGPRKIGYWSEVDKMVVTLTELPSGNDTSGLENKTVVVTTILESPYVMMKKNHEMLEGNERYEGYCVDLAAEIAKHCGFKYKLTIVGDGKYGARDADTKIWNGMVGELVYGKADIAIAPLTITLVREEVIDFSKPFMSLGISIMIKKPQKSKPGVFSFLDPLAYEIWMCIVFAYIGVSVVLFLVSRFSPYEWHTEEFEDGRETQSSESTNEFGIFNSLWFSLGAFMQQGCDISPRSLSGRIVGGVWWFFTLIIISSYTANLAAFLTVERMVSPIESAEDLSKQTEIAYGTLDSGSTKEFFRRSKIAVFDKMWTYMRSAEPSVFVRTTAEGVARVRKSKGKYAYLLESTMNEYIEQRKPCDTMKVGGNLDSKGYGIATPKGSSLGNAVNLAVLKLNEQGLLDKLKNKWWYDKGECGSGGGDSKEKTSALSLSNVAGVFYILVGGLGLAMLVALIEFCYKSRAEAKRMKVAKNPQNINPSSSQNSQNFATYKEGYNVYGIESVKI
Procedure: FIG. 16A-E. Electrophysiologic studies comparing N,N′-(2R,2′R)-2,2′-(biphenyl-4,4′-diyl)bis(propane-2,1-diyl)dipropane-2-sulfonamide) with LY451646. A. Microamperes of current over various periods of time in a GluR2 expressing oocyte (Xenopus laevis oocyte with microinjected rat GluR2 receptor-encoding mRNA), exposed to various concentrations (0.001 μM, 0.01 μM, 0.1 μM and 1 μM) of N,N′-(2R,2′R)-2,2′-(biphenyl-4,4′-diyl)bis(propane-2,1-diyl)dipropane-2-sulfonamide). B. Microamperes of current over various periods of time in a GluR2 expressing oocyte exposed to various concentrations (0.001 μM, 0.01 μM, 0.1 μM, 1 μM and 10 μM) of LY451646. C. In an oocyte expressing GluR2, ratio of current/maximal current (I/Imax) versus concentration of N,N′-(2R,2′R)-2,2′-(biphenyl-4,4′-diyl)bis(propane-2,1-diyl)dipropane-2-sulfonamide). D. In an oocyte expressing GluR2, ratio of current/maximal current (I/Imax) versus concentration of LY451646. E. N,N′-(2R,2′R)-2,2′-(biphenyl-4,4′-diyl)bis(propane-2,1-diyl)dipropane-2-sulfonamide).

AMPA = conditions: rat, glucose utilization and c-fos expression, Fowler et al., 2004; cited from earlier work
[1] = molecular target: GluR2 Flip splice variant (Homo sapiens, UniProt P42262); conditions: by decreasing desensitization, Quirk and Nisenbaum, 2003; cited from earlier work
Chain of GluR2 Flip splice variant (P42262 22-883 isoform P42262-2 limits assumed): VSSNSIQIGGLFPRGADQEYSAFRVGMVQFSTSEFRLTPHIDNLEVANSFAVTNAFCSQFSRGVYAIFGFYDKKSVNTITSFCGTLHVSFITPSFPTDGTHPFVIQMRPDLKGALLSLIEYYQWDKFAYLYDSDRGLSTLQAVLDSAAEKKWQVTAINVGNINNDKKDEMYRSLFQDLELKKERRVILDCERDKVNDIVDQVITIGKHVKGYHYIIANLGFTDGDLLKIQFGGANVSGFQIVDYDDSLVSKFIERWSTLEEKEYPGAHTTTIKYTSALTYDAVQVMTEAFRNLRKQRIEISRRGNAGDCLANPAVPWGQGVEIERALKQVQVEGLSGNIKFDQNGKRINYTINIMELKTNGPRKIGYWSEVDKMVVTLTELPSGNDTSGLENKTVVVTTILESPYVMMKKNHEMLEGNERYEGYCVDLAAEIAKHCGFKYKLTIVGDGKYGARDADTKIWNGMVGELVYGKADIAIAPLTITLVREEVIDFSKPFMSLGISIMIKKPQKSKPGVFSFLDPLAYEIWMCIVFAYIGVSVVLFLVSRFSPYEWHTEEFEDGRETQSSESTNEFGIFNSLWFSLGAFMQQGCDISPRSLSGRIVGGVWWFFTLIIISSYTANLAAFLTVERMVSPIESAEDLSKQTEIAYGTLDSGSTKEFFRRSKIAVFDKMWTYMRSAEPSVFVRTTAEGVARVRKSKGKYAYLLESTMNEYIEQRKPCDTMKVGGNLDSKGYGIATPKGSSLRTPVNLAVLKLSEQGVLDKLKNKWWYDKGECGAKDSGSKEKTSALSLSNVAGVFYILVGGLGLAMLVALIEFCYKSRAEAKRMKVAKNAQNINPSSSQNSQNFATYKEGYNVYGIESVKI

[2] = tested on: rat model of Parkinson's disease; conditions: O'Neil et al., 2004; cited from earlier work
Delta ATD GluR2 = assay: Two electrode voltage clamp (TEVC) recording of glutamate currents in oocytes; type: cell-based; conditions: glutamate plus compound versus glutamate alone, FIG. 3
Excerpt: FIG. 3. LY451646 potentiates glutamate currents from Delta ATD GluR2 as measured by TEVC in oocytes. The top tracing represents application of glutamate alone, the bottom tracing glutamate plus LY451646.
(§1) LY451646 is an […] of GluR2. […] The top tracing represents application of glutamate alone, the bottom tracing glutamate plus LY451646. […] In the absence of LY451646, the amount of dimerized GluR2 barely rises above baseline (FIG. 4A). With the addition of LY451646, dimers overtake monomers (FIG. 4B).

GluR2 S1S2 = GluR2 S1S2 (Rattus norvegicus, UniProt P19491, DEL528-650/N775S/S652T/V651G); assay: Dimerization of GluR2 S1S2; conditions: FIG. 4A-B
Chain of GluR2 S1S2 (P19491 with tags, fused parts or gaps DEL528-650/V651G/S652T/N775S): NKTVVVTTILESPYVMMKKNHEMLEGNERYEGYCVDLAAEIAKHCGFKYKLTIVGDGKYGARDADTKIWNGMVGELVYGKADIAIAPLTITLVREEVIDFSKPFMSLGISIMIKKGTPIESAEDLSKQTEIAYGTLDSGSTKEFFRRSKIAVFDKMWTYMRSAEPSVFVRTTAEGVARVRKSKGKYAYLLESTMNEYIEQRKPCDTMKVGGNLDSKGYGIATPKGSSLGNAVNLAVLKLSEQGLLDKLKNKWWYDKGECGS
Excerpt: (A) GluR2 alone; (B) GluR2S1S2 in the presence of LY451646.
as §1

despair = conditions: Bai et al., 2001; cited from earlier work
[3] = tested on: hippocampal cell proliferation; conditions: rats, Bai et al., 2003; cited from earlier work
GluR21 receptors = GluR21 receptors (Rattus norvegicus, UniProt P19491); assay: Whole-cell recording, potentiation of steady-state glutamate-induced currents; type: cell-based; conditions: whole-cell mode (−60 mV), 1 mM glutamate
Chain of GluR21 receptors (P19491 22-883 isoform P19491-2 limits assumed): as the sequence (P42262 22-883 isoform P42262-2 limits assumed) above, with M170T, T270A, R743G, A831P counted along it
Procedure: FIG. 18. (A) Potentiation of steady-state glutamate-induced currents for GluR2; receptors and (B) % current potentiation bar graph.
Potentiation of steady-state glutamate-induced currents for GluR21 receptors by N,N′-(2S,2′S)-2,2′-(biphenyl-4,4′-diyl)bis(2-fluoropropane-2,1-diyl)dipropane-2-sulfonamide).
The recordings are in whole-cell mode (−60 mV) and show inward currents elicited by 1 mM glutamate in the presence of various concentrations of N,N′-(2S,2′S)-2,2′-(biphenyl-4,4′-diyl)bis(2-fluoropropane-2,1-diyl)dipropane-2-sulfonamide).

Structure (SMILES): CC(C)S(=O)(=O)NC[C@H](C)c1ccc(-c2ccc([C@@H](C)CNS(=O)(=O)C(C)C)cc2)cc1 [GR341]
- effect on amphetamine-induced locomotor activity (locomotor activity; amphetamine 3 mg/kg i.p., 30 minutes, FIG. 17): inhibited amphetamine-induced locomotor activity
- effect of the compound alone on locomotor activity (locomotor activity; saline instead of amphetamine): no significant effect
- EC50 (GluR2 receptor): 12.7 ± 0.6 nM

Structure (SMILES): CC(CNS(=O)(=O)C(C)C)c1ccc(-c2ccc(C#N)cc2)cc1 (centres unmarked) [LY404187, R,S—N-2-(4-(4-Cyanophenyl)phenyl)propyl 2-propanesulfonamide]
- glutamate dependent AMPA stimulation of the brain (AMPA): increases glutamate dependent AMPA stimulation
- receptor's response to glutamate [1]: potentiate the receptor's response to glutamate
- neurotrophic effect [2]: exhibit a neurotrophic effect

Structure (SMILES): CC(C)S(=O)(=O)NC[C@H](C)c1ccc(-c2ccc(C#N)cc2)cc1 [LY451646]
- effect on glutamate currents (Delta ATD GluR2): potentiate glutamate currents
- dimerization of GluR2 S1S2 (GluR2 S1S2): promotes dimerization
- "despair" in the FST and TST (despair): reduce “despair”
- hippocampal cell proliferation [3]: increase hippocampal cell proliferation
- EC50 (GluR2 receptor): 130 ± 16 nM

Structure (SMILES): CC(C)S(=O)(=O)NC[C@@](C)(F)c1ccc(-c2ccc([C@](C)(F)CNS(=O)(=O)C(C)C)cc2)cc1 [N,N′-(2S,2′S)-2,2′-(biphenyl-4,4′-diyl)bis(2-fluoropropane-2,1-diyl)dipropane-2-sulfonamide)]
- saturating concentration (GluR21 receptors): 200 nM
- effect on glutamate receptor currents (GluR21 receptors; FIG. 18): potentiates glutamate receptor currents
- EC50 (GluR21 receptors; FIG. 18B, approximately half saturating concentration): ~50 nM
